Where no end group is shown, it is not given here.
B1: hITF: human intestinal trefoil factor (hITF; also known as TFF3) (protein, listed as Homo sapiens)
chain: MLGLVLALLSSSSAEEYVGLSANQCAVPAKDRVDCGYPHVTPKECNNRGCCFDSRIPGVPWCFKPLQEAECTF

Legend:
[1] = isoelectric point (pI) of ITF fragments; type: physicochemical
From the text: We have observed that production of trefoil peptides in Pichia pastoris leads to post-translational events which include proteolytic cleavage and dipeptide addition. […] Our studies have shown that longer fermentation times results in increased hITF21-72 yields. We also observed that the optimal yield of the ITF21-72 and ITF21-73 occurs at a pH of ˜5; whereas the optimal yield of the […] and […] occurs at pH 6.0-6.5. As the pI of ITF15-73 and ITF21-72 is 5.1 and 6.9 respectively, separation of the two products can be achieved by ion-exchange chromatography.

IEC-6 cells = assay: in vitro IEC-6 wounding/cell migration assay; type: cell-based; conditions: for relative activity (wound repair, IEC-6 cells across the wound border): 0.1-1.0 mg/ml dimer, 19 hours, serum-deprived media with or without hCGP 2 mg/ml
Protocol: Biological activity of recombinant trefoil peptide fragments was measured using an in vitro wound/migration assay as described by Dignass et al. (J. Clin. Invest. 94:376-383 (1994)). Briefly, primary intestinal epithelial, IEC-6 cells (at passage 17) were grown in sterile Dulbecco's Modified Eagle Medium (DMEM) supplemented with 5% FCS (v/v), 5 μg/μl insulin, and 10 mM penicillin/streptomycin/L-glutamine (PSG). Cells were grown to confluence in a humidified chamber at 37° C. and 5% CO2.
Prior to performing biopotency assays, the media was removed, washed 2× with 0.1% FCS/DMEM and serum-starved overnight in 0.1% FCS/DMEM at 37° C. and 5% CO2. Two simulated wounds per well were made by scoring the cells with a razor blade. The cells were then washed once with 0.1%FCS/DMEM. Samples of hITF15-73 and its fragments and isoforms were produced in Pichia pastoris and purified as described above. The TDCP mixture was then added to separate plates at a concentration of 100 μg per milliliter of 0.1% FCS/DMEM per fragment. A positive control using the known mitogen, transforming growth factor-β (TGF-β), was included at 20 ng/mL media and a negative control of just 0.1% FCS/DMEM were incorporated for later analysis. Cells were incubated for 24 hours at 37° C. At 24 hours post incubation, cells were washed with ice-cold PBS and fixed in cold MeOH. Each plate was then assayed for motility by counting the number of cells crossing the wound edge.
Biological activity was tested using the in vitro IEC-6 wounding/cell migration assay describe above with the following modifications. IEC-6 cells were cultured to confluence in 24-well multiwell plates and were wounded once with a pipette to yield a 4-5 mm×1 cm wound in each well. Cells were washed and maintained in serum-deprived media, with or without human colonic glycoprotein (hCGP; 2 mg/ml), in the presence of 0.1-1.0 mg/ml of one of the three recombinant hITF dimers identified above for 19 hours. Bovine serum albumin (0.1-1.0 mg/ml) was added instead of an hITF dimer. Wound repair was determined by counting the number of IEC-6 cells across the wound border using a 100× photomicrograph (inverted Nikon Diaphor TMS, Nikon N6006 camera).

[2] = stated as well known; cited from earlier work

| Molecule | relative activity (wound repair, IEC-6 cells across the wound border) (IEC-6 cells) [%] | other results |
| --- | --- | --- |
| hITF15-73: recombinant trefoil peptide fragment, amino acid residues 15-73 of human intestinal trefoil factor, produced in Pichia pastoris (EEYVGLSANQCAVPAKDRVDCGYPHVTPKECNNRGCCFDSRIPGVPWCFKPLQEAECTF; UniProt Q07654 22-80, looked up, fragment) | – | pI [1]: 5.1; increase in IEC-6 cells migrating over the wound edge, compared to BSA control (IEC-6 cells; 1 mg/ml, 19 hour incubation, versus 1 mg/ml BSA (FIG. 12)): ~3 fold |
| hITF15-73/EA-hITF15-73 heterodimer: dimer of hITF15-73 and EA-hITF15-73, 13347 Da (EEYVGLSANQCAVPAKDRVDCGYPHVTPKECNNRGCCFDSRIPGVPWCFKPLQEAECTF; cysteine pairing not given here; also: heterodimer of hITF15-73 and EA-hITF15-73, one chain has N-terminal Glu-Ala extension; UniProt Q07654 22-80, looked up, fragment) | 95.6 | – |
| hITF15-73 homodimer: recombinant hITF15-73 dimer, 13146 Da (EEYVGLSANQCAVPAKDRVDCGYPHVTPKECNNRGCCFDSRIPGVPWCFKPLQEAECTF; cysteine pairing not given here; also: homodimer; UniProt Q07654 22-80, looked up, fragment) | 100 | – |
| EA-hITF15-73 homodimer: dimer of EA-hITF15-73, 13547 Da (EAEEYVGLSANQCAVPAKDRVDCGYPHVTPKECNNRGCCFDSRIPGVPWCFKPLQEAECTF; also: homodimer; UniProt Q07654 22-80, looked up, fragment) | 85.3 | – |
| B1 | – | stability at stomach pH [2]: stable |
